{"source": "patent US8377974B2", "about": "(Millennium Pharmaceuticals, Inc., priority 2004, dated 2013)"}
{"biological_target": "T1, human plasma protein factor Xa (Homo sapiens, UniProt P00742)", "T1 construct": "measure proteolytic activity of the enzyme (factor Xa); purchased Haematologic Technologies (Essex Junction, Vt.); host or cells: human plasma", "T1 sequence (P00742 235-488 limits assumed)": "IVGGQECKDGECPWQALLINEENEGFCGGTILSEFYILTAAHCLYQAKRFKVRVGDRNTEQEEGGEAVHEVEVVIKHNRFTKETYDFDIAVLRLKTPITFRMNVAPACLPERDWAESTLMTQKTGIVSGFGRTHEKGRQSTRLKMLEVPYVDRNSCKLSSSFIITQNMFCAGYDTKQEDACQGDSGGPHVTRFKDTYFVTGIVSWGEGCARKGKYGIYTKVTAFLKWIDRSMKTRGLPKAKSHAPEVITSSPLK", "T1 sequence (P00742 41-179 partner limits assumed)": "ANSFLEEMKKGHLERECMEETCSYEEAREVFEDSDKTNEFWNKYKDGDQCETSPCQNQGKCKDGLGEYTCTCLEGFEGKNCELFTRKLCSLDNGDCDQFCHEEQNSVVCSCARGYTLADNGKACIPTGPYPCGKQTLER", "test": "Factor Xa IC50 determination: cleavage of paranitroanilide substrate S-2765 in 96-well plates", "format": "biochemical", "conditions": "fXa 1 nM, S-2765 100 μM, Tris buffered saline pH 7.4, room temperature", "how_it_was_run": "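Human plasma factor Xa (1 nM) preincubated 5 min at room temperature with inhibitor (0.01 nM–10 μM final) in Tris-buffered saline pH 7.4 with 5 mM CaCl2, 0.1% BSA, 5% DMSO. S-2765 at 100 μM final; hydrolysis at 405 nm over 2 min. IC50 from 4-parameter fit of initial velocities.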", "units": {"IC50": "nM"}}
{"molecule": "CN(C)Cc1ccccc1-c1cccc(-c2cc(CNC(=O)c3ccc(Cl)s3)on2)c1", "note": "[Example 268, 5-Chloro-thiophene-2-carboxylic acid [3-(T-dimethylaminomethyl-biphenyl-3-yl)-isoxazol-5-ylmethyl]-amide]", "IC50": "≥ 500"}
{"molecule": "O=C(NCC1CC(c2ccc(N3CCOCCC3=O)cc2)=NO1)c1ccc(Cl)s1", "note": "(stereo not shown) [Example 246, 5-Chloro-thiophene-2-carboxylic acid {3-[4-(5-oxo-[1,4]oxazepan-4-yl)-phenyl]-4,5-dihydro-isoxazol-5-ylmethyl}-amide]", "IC50": "≤ 100"}
{"molecule": "O=C(NCC1CC(c2ccc(Nc3ccc(F)cc3)cc2)=NO1)c1ccc(Cl)s1", "note": "(stereo not shown) [Example 223, 5-Chloro-thiophene-2-carboxylic acid {3-[4-(4-fluoro-phenylamino)-phenyl]-4,5-dihydro-isoxazol-5-ylmethyl}-amide]", "IC50": "≥ 500"}
{"molecule": "O=C(NCC1CC(c2cccc(-c3ccncc3)c2)=NO1)c1ccc(Cl)s1", "note": "(stereo not shown) [Example 275, 5-Chloro-thiophene-2-carboxylic acid [3-(3-pyridin-4-yl-phenyl)-4,5-dihydro-isoxazol-5-ylmethyl]-amide]", "IC50": "≥ 500"}
{"molecule": "N=C(c1ccccc1)N1CCC(C2=NOC(CNC(=O)c3ccc(Cl)s3)C2)CC1", "note": "(stereo not shown) [Example 174, 5-Chloro-thiophene-2-carboxylic acid {3-[1-(imino-phenyl-methyl)-piperidin-4-yl]-4,5-dihydro-isoxazol-5-ylmethyl}-amide]", "IC50": "≥ 500"}
{"molecule": "O=C(NCC1CC(c2ccc(C(=O)N3CCCC3)cc2)=NO1)c1ccc(Cl)s1", "note": "(stereo not shown) [Example 164, 5-Chloro-thiophene-2-carboxylic acid {3-[4-(pyrrolidine-1-carbonyl)-phenyl]-4,5-dihydro-isoxazol-5-ylmethyl}-amide]", "IC50": "≤ 100"}
{"molecule": "COCCN(C)C(=N)c1ccc(-c2cc(CN(C)C(=O)c3ccc(Cl)s3)on2)cc1", "note": "[Example 46, 5-Chloro-thiophene-2-carboxylic acid (3-{4-[N-(2-methoxy-ethyl)-N-methyl-carbamimidoyl]-phenyl}-isoxazol-5-ylmethyl)-methyl-amide]", "IC50": "≥ 500"}
{"molecule": "CSc1cc(C(=N)N2CCCC2)ccc1C1=NOC(CNC(=O)c2ccc(Cl)s2)C1", "note": "(stereo not shown) [Example 138, 5-Chloro-thiophene-2-carboxylic acid {3-[4-(imino-pyrrolidin-1-yl-methyl)-2-methylsulfanyl-phenyl]-4,5-dihydro-isoxazol-5-ylmethyl}-amide]", "IC50": "≤ 100"}
{"molecule": "CN(C)CCN(C)Cc1ccccc1-c1ccc(C2=NOC(CNC(=O)c3ccc(Cl)s3)C2)cc1", "note": "(stereo not shown) [Example 200, 5-Chloro-thiophene-2-carboxylic acid [3-(2′-{[(2-dimethylamino-ethyl)-methyl-amino]-methyl}-biphenyl-4-yl)-4,5-dihydro-isoxazol-5-ylmethyl]-amide]", "IC50": "≤ 100"}
{"molecule": "COc1cc(C(=N)N(C)C)ccc1C1=NOC(CNC(=O)c2ccc(Cl)s2)C1", "note": "(stereo not shown) [Example 102, 5-Chloro-thiophene-2-carboxylic acid {3-[4-(N,N-dimethyl-carbamimidoyl)-2-methoxy-phenyl]-4,5-dihydro-isoxazol-5-ylmethyl}-amide]", "IC50": "≤ 100"}
{"molecule": "O=Cc1ccccc1-c1ccc(C2=NOC(CNC(=O)c3ccc(Cl)s3)C2)cc1", "note": "(stereo not shown) [Example 183, 5-Chloro-thiophene-2-carboxylic acid [3-(2′-formyl-biphenyl-4-yl)-4,5-dihydro-isoxazol-5-ylmethyl]-amide]", "IC50": "≥ 500"}
{"molecule": "CCOc1cc(C(=N)N2CCCCC2)ccc1-c1cc(CNC(=O)c2ccc(Cl)s2)on1", "note": "[Example 125, 5-Chloro-thiophene-2-carboxylic acid {3-[2-ethoxy-4-(imino-piperidin-1-yl-methyl)-phenyl]-isoxazol-5-ylmethyl}-amide]", "IC50": "≤ 100"}
{"molecule": "N=C(c1ccc(-c2cc(CNC(=O)c3ccc(Cl)s3)no2)cc1)N1CCCC1", "note": "[Example 332, 5-Chloro-N-((5-(4-(imino(pyrrolidin-1-yl)methyl)phenyl)isoxazol-3-yl)methyl)thiophene-2-carboxamide]", "IC50": "≤ 100"}
